The values that follow come from patent US12570984B2, “DNA aptamer specifically binding to glutathione and use thereof” (Nexmos Co., LTD, priority 2020, dated 2026).

The target of series [1] is T1, tyrosinase (Homo sapiens, UniProt P14679).
T1 sequence (P14679 19-529): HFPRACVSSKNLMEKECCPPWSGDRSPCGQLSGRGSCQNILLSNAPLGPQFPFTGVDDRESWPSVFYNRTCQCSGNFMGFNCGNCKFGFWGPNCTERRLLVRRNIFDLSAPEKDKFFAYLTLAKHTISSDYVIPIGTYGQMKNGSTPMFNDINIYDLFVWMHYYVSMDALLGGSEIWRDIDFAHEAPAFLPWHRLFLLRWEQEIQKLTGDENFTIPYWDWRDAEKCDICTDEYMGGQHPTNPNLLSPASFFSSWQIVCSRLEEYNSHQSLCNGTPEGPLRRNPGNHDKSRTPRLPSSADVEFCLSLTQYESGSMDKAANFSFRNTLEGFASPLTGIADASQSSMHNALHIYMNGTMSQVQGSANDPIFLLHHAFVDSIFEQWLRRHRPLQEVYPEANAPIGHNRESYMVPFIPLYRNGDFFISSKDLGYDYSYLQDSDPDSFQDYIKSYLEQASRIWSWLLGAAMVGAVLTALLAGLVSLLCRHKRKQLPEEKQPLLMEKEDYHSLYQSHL
Description: Whitening efficacy test, in vitro cell-based tyrosinase activity (MNT-1 cells). The note with it: 72 hours, final 100 μM GSH, 1 μM Apt G, 0.01% arbutin, L-DOPA, absorbance 475 nm. As for the experimental part: The final concentration of each component in this experiment was 100 μM GSH, 1 μM Apt G, 0.01% arbutin,
100 μM GSH and 1 μM of the prepared aptamer (molar concentration of 100:1) were added to the media and reacted at room temperature for 30 minutes.
MNT-1 cells were seeded on a 6-well plate and incubated for 24 hours at 37° C., 5% CO2 incubator.
After treating each of the prepared samples, the samples were again incubated at 37° C. and 5% CO2 incubator for 72 hours.
After incubation, ice-cold lysis buffer (RIPA buf.+ protease inhibitor) was used to remove the cells from the plate, and the removed cells were transferred to an EP-tube and centrifuged to remove only the supernatant.
Lysate, L-DOPA, potassium phosphate buffer (pH6.5) was added to a 96 well plate and mixed (each test group used the same amount of protein through protein quantification).
After incubation for 1 hour at 37° C., 5% CO2 incubator, absorbance was measured at 475 nm using a plate reader.

Series [2] can be described thus: Antioxidant efficacy test, DTNB assay (sulfhydryl group determination) of GSH stored at 37° C. The note with it: day 16, storage at 37° C.; final 125 μM GSH, 1.25 μM aptamin G; n=5.
Description: In this experiment, the final concentration of each component was 125 μM GSH and 1.25 μM aptamin G.
The prepared aptamer (100:1) of the prepared aptamer (100:1) of 250 μM GSH and 2.5 μM was dissolved in the 3th distilled water for 30 minutes at room temperature.
The above GSH-Aptamin G complex was stored for a certain period of time under severe conditions (37° C.), and samples were obtained every 4 days and measured for 16 days.
Just before the sample measurement, 10 mm DTNB (4 mg/ml, buffer: 0.1 M potassium Phosphate buffer, pH 8.0) was prepared to mix the sample (50 μL) of DTNB solution and shaking incubation.
After the reaction, the UV Absorbance value was measured at 412 nm and REF wavelength 605 nm using the Plate Reader.
In series [3] the test system is tyrosinase. The following applies: final 20 μM GSH; 37° C. 10 minutes; absorbance 490 nm; N=5. As for the experimental part: The final concentrations of each component in this experiment were 20 μM GSH, 0.2 μM Apt G, and 0.01% arbutin.
300 μM GSH and 3 μM of the prepared aptamer (molar concentration of 100:1) were dissolved in tertiary distilled water and reacted at room temperature for 30 minutes.
In a 96 well plate, 200 μL of 0.1 M potassium phosphate buffer (pH6.5), 20 μL of sample, 20 μL of 2 KU/mL tyrosinase, and 60 μL of 1.0 mM tyrosine were sequentially added and reacted at 37° C. for 10 minutes.
After the reaction, absorbance was measured at 490 nm using a plate reader.

As for `N[C@@H](CCC(=O)N[C@@H](CS)C(=O)NCC(=O)O)C(=O)O` [GSH, Glutathione], the “inhibition of tyrosinase activity (cell test)” value at tyrosinase [1] is “tendency not to inhibit the activity of tyrosinase”. Further, in series [2], the “amount of GSH remaining unoxidized” value is given as “about 60%”. The “inhibition of the activity of tyrosinase” value in the series on tyrosinase [3] is “about 75%”.
`OC[C@H]1O[C@@H](Oc2ccc(O)cc2)[C@H](O)[C@@H](O)[C@@H]1O` [Arbutin]: the “inhibition of tyrosinase activity (cell test)” value on tyrosinase [1] is listed as “about 25%”.
